Assay results from article PMC2846458 (Nature medicine, 2008).
Residue numbers refer to the chain shown, from its start. pIC50: −log10 of the molar value.

What was measured:
TGF-β signaling = assay: Immunoblot of TGF-β signaling in PASMCs; assay type: cell-based; conditions: Mus musculus, PASMC, read-out: IC50 for TGF-β signaling
ALK2^R206H = target: T1, ALK2^R206H (Homo sapiens, UniProt Q04771, R206H); assay: Id1 promoter activity; assay type: cell-based
T1 sequence (Q04771 21-509 R206H): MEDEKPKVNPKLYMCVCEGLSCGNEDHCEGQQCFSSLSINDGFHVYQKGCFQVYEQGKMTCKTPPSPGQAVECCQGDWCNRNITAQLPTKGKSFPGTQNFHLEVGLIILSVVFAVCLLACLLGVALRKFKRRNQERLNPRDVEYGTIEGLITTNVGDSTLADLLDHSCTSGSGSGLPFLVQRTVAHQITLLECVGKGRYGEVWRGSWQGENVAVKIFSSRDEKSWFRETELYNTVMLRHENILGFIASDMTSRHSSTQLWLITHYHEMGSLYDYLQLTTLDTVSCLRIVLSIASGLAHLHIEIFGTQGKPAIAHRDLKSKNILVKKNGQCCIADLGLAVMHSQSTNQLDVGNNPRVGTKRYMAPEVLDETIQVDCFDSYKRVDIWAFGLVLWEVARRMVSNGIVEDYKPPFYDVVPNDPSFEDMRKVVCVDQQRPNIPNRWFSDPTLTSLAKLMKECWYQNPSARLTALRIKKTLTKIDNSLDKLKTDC

ALK2^Q207D = target: T2, ALK2^Q207D (Homo sapiens, UniProt Q04771, Q207D); assay: Id1 promoter activity; assay type: cell-based
T2 sequence (Q04771 21-509 Q207D): T1 sequence (Q04771 21-509 R206H) with H186R, Q187D

C2C12 cells = assay: BMP4-induced alkaline phosphatase activity; assay type: cell-based; conditions: 100 nM, BMP4 10 ng ml^-1, even when administered 12 h after BMP stimulation
[1] = test system: Ad.Cre-injected conditional caALK2–transgenic mice; assay: Ectopic ossification in Ad.Cre-injected conditional caALK2-transgenic mice; assay type: in vivo, mouse
[2] = Tolerability of treatment in mice
[3] = 3 mg kg^-1 i.p. every 12 h, lesions attenuated in the remainder

SMILES	pIC50 (TGF-β signaling)	effect on transcriptional activity induced by ALK2^R206H (ALK2^R206H)	effect on transcriptional activity induced by ALK2^Q207D (ALK2^Q207D)	effect on induction of alkaline phosphatase activity by BMP4 (C2C12 cells)	endochondral bone in hindlimbs (histology) ([1]; 3 mg kg^-1 i.p. every 12 h)	phosphorylated Smad1/5/8 and Runx2 staining in left gastrocnemius ([1]; 3 mg kg^-1 i.p. every 12 h, P11)	passive range of motion in the ankle joint ([1]; 3 mg kg^-1 i.p. every 12 h, P15 and P30, versus vehicle)	fraction of mice in which ectopic bone was prevented at P30 [1, 3]	fraction of mice in which ectopic bone was prevented at P60 [1, 3]	radiographic lesions at P15 ([1]; 3 mg kg^-1 i.p. every 12 h after Ad.Cre on P7)	fractures, osteopenia, skeletal abnormalities ([2]; 3 mg kg^-1 i.p. every 12 h, up to P60)	ectopic calcifications and immobility at P30 ([1]; 10 mg kg^-1 d^-1 i.p. starting 1 d after Ad.Cre at P7, versus vehicle)	effect on weight and growth ([2]; wild-type or mutant mice, during drug administration)
c1ccc2c(-c3cnn4cc(-c5ccc(N6CCNCC6)cc5)cnc34)ccnc2c1 [LDN-193189, 4-[6-(4-piperazin-1-ylphenyl)pyrazolo[1,5-a]pyrimidin-3-yl]quinoline]	≤ 6.00	blocked the transcriptional activity	blocked the transcriptional activity	inhibited the induction of alkaline phosphatase activity	substantially less endochondral bone	diminished	significant rescue of function	approximately two-thirds	one-third	prevented radiographic lesions at P15 in all mice examined	without inducing fractures, osteopenia or skeletal abnormalities	–	–
C[C@@H]1C[C@H]2[C@@H]3CCC4=CC(=O)C=C[C@]4(C)[C@@]3(F)[C@@H](O)C[C@]2(C)[C@@]1(O)C(=O)CO [dexamethasone, reference compound]	–	–	–	–	–	–	–	–	–	–	–	markedly reduced	severely impaired weight gain
